The text below walks through data of patent publication US11680061B2, “Crystal forms C and E of pyrazin-2(1H)-one compound and preparation method therefor” (ZHANGZHOU PIEN TZE HUANG PHARMACEUTICAL CO., LTD., priority 2019, dated 2023).

Data set [1] is described as follows: Hygroscopicity study by dynamic vapor sorption (DVS). Format: physicochemical. As to conditions: 25° C. and 80% RH. The method, then:
Dynamic Vapor Sorption (DVS) Method in the Present Disclosure
Instrument model: SMS DVS Advantage dynamic vapor sorption instrument
Test conditions: samples (10 mg to 15 mg) were placed in a DVS sample tray for testing.
Detailed DVS parameters are as follows:
Balance: dm/dt=0.01%/min (shortest: 10 min, longest: 180 min)
Drying: 120 min under 0% RH
RH (%) test step range: 0% to 90% to 0%
The evaluation classification of hygroscopicity was as follows:
10 to 15 mg of the crystal form C of the compound of formula (II) was placed in the DVS sample tray for testing.
10 to 15 mg of the crystal form E of the compound of formula (II) was placed in the DVS sample tray for testing.

A short description of data set [2]: Pharmacokinetic evaluation in mice, single intragastric administration. Format: in vivo, CD-1 mice (male). The method, then:
Experimental Purposes: To Test the Pharmacokinetics of the Compound in Mice
CD-1 mice (male), vehicle (0.5% (w/v) methylcellulose 0.5% (v/v) Tween 80 aqueous solution), trifluoroacetate salt of compound 0027.
The vehicle was 0.5% (w/v) methylcellulose and 0.5% (v/v) Tween 80 aqueous solution, and the formulation was prepared according to the following procedure: […]
Preparation of formulation for intragastric administration: […]
Animals in groups 1 and 2 were given 5 mg/mL and 30 mg/mL compound by single intragastric administration, respectively, with a dose volume of 10 mL/kg.
The animals were weighed before administration, and the administration volume was calculated according to the body weight.
Whole blood samples (30 μL) were collected at specified times (0.25, 0.5, 1, 2, 4, 6, 8, 24 hours) by saphenous vein collection and the actual time of collection was recorded in the test record. The acceptable error for the collection time points was ±1 minute for time points within 1 hour of administration and ±5% of the theoretical time for other time points.
All blood samples were immediately transferred to labeled commercial centrifuge tubes containing K2-EDTA. […] And the pharmacokinetic parameters were calculated, experimental result: See Table 5.

For the molecule `COc1cc(OC)c(Cl)c(-c2nc(-c3nc(-c4cn(C)nc4C)cnc3N)cn(C)c2=O)c1` [crystal form E of the compound of formula (II)], in data set [1], the Classification of hygroscopicity result is recorded as “slightly hygroscopic” and the “ΔW, hygroscopic weight gain” value stood at 0.5%.
With `COc1cc(OC)c(Cl)c(-c2nc(-c3nc(-c4cn(C)nc4C)cnc3N)cn(C)c2=O)c1` [crystal form C of the compound of formula (II)], in data set [1], the Classification of hygroscopicity entry is “slightly hygroscopic” and the “ΔW, hygroscopic weight gain” value stood at 1.1%.
In the case of `COc1cc(OC)c(Cl)c(-c2nc(-c3nc(-c4cn(C)nc4C)cnc3N)cn(C)c2=O)c1`, the Tlast in data set [2] (CD-1 mice, intragastric, 300 mpk, plasma) is 24.0 h. Moreover, in data set [2] (conclusion in words), the “pharmacokinetic index in mice” value was “good”.
